Experimental data from US5962314A, “Calcium receptor-active molecules” (priority 1997, dated 1999).
Read-outs that look alike come from different tables or passages of the source.

Target: T1, parathyroid cell calcium receptor (Bos taurus, UniProt P35384)
T1 sequence (P35384 20-1085): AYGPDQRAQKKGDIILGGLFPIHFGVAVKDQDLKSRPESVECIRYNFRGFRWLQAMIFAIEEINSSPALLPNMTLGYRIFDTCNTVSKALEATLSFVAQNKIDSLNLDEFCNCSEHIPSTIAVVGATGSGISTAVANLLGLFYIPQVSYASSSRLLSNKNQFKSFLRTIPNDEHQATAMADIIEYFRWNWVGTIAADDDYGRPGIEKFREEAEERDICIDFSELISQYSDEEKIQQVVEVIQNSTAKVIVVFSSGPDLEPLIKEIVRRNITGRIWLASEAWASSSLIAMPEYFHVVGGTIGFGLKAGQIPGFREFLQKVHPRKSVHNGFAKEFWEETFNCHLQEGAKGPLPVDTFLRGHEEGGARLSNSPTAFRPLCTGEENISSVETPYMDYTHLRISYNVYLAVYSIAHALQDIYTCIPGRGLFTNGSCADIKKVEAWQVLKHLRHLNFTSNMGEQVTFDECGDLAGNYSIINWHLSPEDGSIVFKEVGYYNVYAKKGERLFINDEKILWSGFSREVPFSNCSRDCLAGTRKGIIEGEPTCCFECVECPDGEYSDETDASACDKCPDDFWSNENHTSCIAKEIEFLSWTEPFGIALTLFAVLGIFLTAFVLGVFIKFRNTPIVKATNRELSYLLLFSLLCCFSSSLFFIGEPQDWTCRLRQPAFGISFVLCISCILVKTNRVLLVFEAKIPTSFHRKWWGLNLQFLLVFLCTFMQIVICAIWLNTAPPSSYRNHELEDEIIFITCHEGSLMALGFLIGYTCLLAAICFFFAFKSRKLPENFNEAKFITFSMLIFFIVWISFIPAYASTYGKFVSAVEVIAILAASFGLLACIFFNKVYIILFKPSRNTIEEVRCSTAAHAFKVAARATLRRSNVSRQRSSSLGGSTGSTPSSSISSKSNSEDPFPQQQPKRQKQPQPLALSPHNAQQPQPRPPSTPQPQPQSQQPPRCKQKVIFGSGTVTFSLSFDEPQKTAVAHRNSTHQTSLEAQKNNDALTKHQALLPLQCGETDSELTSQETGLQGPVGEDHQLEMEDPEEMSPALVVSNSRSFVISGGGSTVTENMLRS
Assay: cell-based
Assay type: cell-based
Conditions: for EC50: increases in intracellular calcium, fura-2 loaded cells; for relative potency, in words: parathyroid cells

NCCNCCNCCN [Triethylenetramine (TETA), triethylenetetramine]
effect on [Ca2+]i: mobilize intracellular Ca^2+

COC(=O)C1=C(C)NC(C)=C(C(=O)OC)C1c1ccccc1[N+](=O)[O-] [nifedipine]
effect on basal or extracellular Ca2+-evoked [Ca2+]i: None of the dihydropyridines tested

C[C@@H](NCc1ccc(C(C)(C)C)cc1)c1cccc2ccccc12 [Compound 15G]
EC50 (Table 8): ~0.5 µM

CCCC(=O)N[C@@H](Cc1ccc(O)cc1)C(=O)NCCCCNCCCNCCCN [Philanthotoxin-433]
effect on [Ca2+]i (500 μM): without effect

NC[C@H]1O[C@H](O[C@H]2[C@H](O)[C@@H](O[C@H]3O[C@H](CO)[C@@H](O)[C@H](N)[C@H]3O)[C@H](N)C[C@@H]2N)[C@H](O)[C@@H](O)[C@@H]1O [Kanamycin]
effect on [Ca2+]i (500 μM): without effect

CC(C)c1ccc([C@@H](C)N[C@H](C)c2cccc3ccccc23)cc1 [Compound 14L]
EC50 (Table 8): 0.26 µM

CC1=C(C(=O)OC(C)C)[C@@H](c2cccc3nonc23)C([N+](=O)[O-])=C(C)N1 [(-) 202-791]
effect on basal or extracellular Ca2+-evoked [Ca2+]i (1 μM): None of the dihydropyridines tested

COc1cccc(C(C)NCCC(c2ccccc2)c2ccccc2)c1 (racemic) [meta-Methoxyfendiline]
relative potency, in words: as potent as NPS 467

NCCNCCNCCNCCN [Tetraethylenepentamine (TEPA), Tetraethylenepentamine]
effect on [Ca2+]i: mobilize intracellular Ca^2+

CCC[C@@H]1C[C@@H](C(=O)N[C@@H]([C@H]2O[C@H](SC)[C@H](O)[C@@H](O)[C@H]2O)[C@@H](C)O)N(C)C1 [lincomycin]
effect on [Ca2+]i (500 μM): without effect

NCCCN(CCCN)CCCN(CCCN)CCCCN(CCCN)CCCN(CCCN)CCCN [NPS 381, N^1,N^1,N^5,N^10,N^14,N^14-hexakis-(3-aminopropyl) spermine]
effect on [Ca2+]i: mobilize intracellular Ca^2+

CC(NCCCc1ccccc1)C1CCCCC1 (centres unmarked) [Compound 20V]
EC50 (Table 7): > 100 µM

CC(N[C@H](C)c1ccccc1)c1cccc2ccccc12 (some centres unmarked) [Compound 4G]
EC50 (Table 8): 1.8 µM

CCOC(=O)C1=C(C)NC(C)=C(C(=O)OC)C1c1cccc([N+](=O)[O-])c1 (centres unmarked) [nitrendipine]
effect on basal or extracellular Ca2+-evoked [Ca2+]i (1 μM): None of the dihydropyridines tested

CC1=C(C(=O)OC(C)C)[C@H](c2cccc3nonc23)C([N+](=O)[O-])=C(C)N1 [(+) 202-791]
effect on basal or extracellular Ca2+-evoked [Ca2+]i (1 μM): None of the dihydropyridines tested

CC(NCCCc1ccccc1)c1ccccc1 (centres unmarked) [Compound 1D]
relative potency, in words: nearly as potent as the parent molecule

CC(N[C@H](C)c1ccccc1)c1ccc2ccccc2c1 (some centres unmarked) [Compound 4H]
EC50 (Table 8): ≥ 3 µM

COC(=O)C1=C(C)NC(C)=C([N+](=O)[O-])C1c1ccccc1C(F)(F)F (centres unmarked) [BAY K 8644]
effect on basal or extracellular Ca2+-evoked [Ca2+]i (1 μM): None of the dihydropyridines tested

N=C(N)NCCC[C@H](N)C(=O)NCCCNCCCNCCCCCNC(=O)[C@H](CC(N)=O)NC(=O)Cc1ccc(O)cc1O [Argiotoxin-636]
effect on response to extracellular Ca2+: did potentiate cytosolic Ca^2+
effect on [Ca2+]i (400 μM): did not elicit increases in [Ca^2+ ]
effect on [Ca2+]i (100 to 300 μM): had no effect

COc1cccc([C@@H](C)N[C@H](C)c2cccc3ccccc23)c1 [Compound 14Y]
EC50 (Table 8): 0.38 µM

N=C(N)NCCC[C@H](N)C(=O)NCCCNCCCNCCCCCNC(=O)[C@H](CC(N)=O)NC(=O)Cc1c[nH]c2cccc(O)c12 [Argiotoxin-659]
effect on [Ca2+]i (100 to 300 μM): evoked transient increases in [Ca^2+ ]i
